Results published in article PMC6499816, “Molecular determinants regulating selective binding of autophagy adapters and receptors to ATG8 proteins” (Nature Communications, 2019).
Like-named read-outs stand apart in the source and are kept apart here. Ends that are not written are not given here.

Legend:
[1] = molecular target: T1, GABARAPL1 (Homo sapiens, UniProt Q9H0R8); assay: BLI, LIR peptide binding to GABARAPL1
T1 construct: insertion of full-length human GABARAP, GABARAP-L1, LC3A, and LC3C, and EcoRI and NotI restrictions sites for cloning of LC3B and GABARAP-L2; GST (followed by 3C protease site) (N); made in house; host or cells: bacteria (E. coli BL21 (DE3) pLysS is stated for the GST-ATG8 proteins of the overlay assay)
Protocol: (§1) For recombinant protein expression in bacteria, a modified plasmid of pGEX-6P2 (GE Healthcare) (referred to as pAL) containing an N-terminal […] followed by a 3C protease cleavage site was used.
(§2) Expression was induced by the addition of 0.5 mM IPTG at OD600 = 0.6 and cells were incubated at 25 °C overnight or at 37 °C for 5 h. Harvested cells were lysed in 50 mM Tris-HCl, pH 8.0, 500 mM NaCl, 0.1% Triton X-100, 0.4 mM 4-(2-aminoethyl)-benzenesulfonylfluoride HCl (AEBSF), and 15 µg/ml benzamidine. Fusion protein was batch adsorbed onto Glutathione-Sepharose 4B beads (GE Healthcare). After five washes with wash buffer (50 mM Tris, pH 8.0, 250 mM NaCl, 0.4 mM AEBSF, and 15 µg/ml benzamidine), fusion proteins were eluted in 50 mM Tris, pH 8.0, 2 mM L-glutathione reduced, 0.4 mM AEBSF, and 15 µg/ml benzamidine.
(§3) The biosensor tip surface immobilized with a ligand is incubated with an analyte in solution, resulting in an increase in optical thickness at the biosensor tip and a wavelength shift, which is a direct measure of the change in thickness. […] Ligand-loaded SA biosensors were then incubated with different concentrations of ATG8. All binding experiments were performed in solid-black 96-well plates containing 200 μl of solution (25 mM Tris, pH 7.5, 150 mM NaCl, 0.5 mM TCEP, 0.1% Tween-20, 1 mg/ml bovine serum albumin (BSA)) in each well at 25 °C with an agitation speed of 1000 rpm. Each measurement was repeated two to five times.
(§4) Peptides were synthesized using FMOC (fluorenylmethoxycarbonyl) solid-phase peptide chemistry by the Francis Crick Peptide Chemistry Technology Platform and are listed in Supplementary Table 2.

[2] = molecular target: T2, GABARAPL2 (Homo sapiens, UniProt P60520); assay: BLI, LIR peptide binding to GABARAPL2; conditions: read-out: Kd (best-fit value)
T2 construct: insertion of full-length human GABARAP, GABARAP-L1, LC3A, and LC3C, and EcoRI and NotI restrictions sites for cloning of LC3B and GABARAP-L2; GST (followed by 3C protease site) (N); made in house; host or cells: bacteria (E. coli BL21 (DE3) pLysS is stated for the GST-ATG8 proteins of the overlay assay)
Protocol: as §1, §2, §3, §4

[3] = molecular target: T3, GABARAP (Homo sapiens, UniProt O95166); assay: BLI, LIR peptide binding to GABARAP; conditions: n=2 independent experiments, read-out: Kd (best-fit value)
T3 construct: insertion of full-length human GABARAP, GABARAP-L1, LC3A, and LC3C, and EcoRI and NotI restrictions sites for cloning of LC3B and GABARAP-L2; GST (followed by 3C protease site) (N); made in house; host or cells: bacteria (E. coli BL21 (DE3) pLysS is stated for the GST-ATG8 proteins of the overlay assay)
Protocol: as §1, §2, §3, §4

[4] = molecular target: T4, LC3C (Homo sapiens, UniProt Q9BXW4); assay: BLI, LIR peptide binding to LC3C; conditions: read-out: Kd (best-fit value)
T4 construct: insertion of full-length human GABARAP, GABARAP-L1, LC3A, and LC3C, and EcoRI and NotI restrictions sites for cloning of LC3B and GABARAP-L2; GST (followed by 3C protease site) (N); made in house; host or cells: bacteria (E. coli BL21 (DE3) pLysS is stated for the GST-ATG8 proteins of the overlay assay)
Protocol: as §1, §2, §3, §4

[5] = molecular target: T5, LC3A (Homo sapiens, UniProt Q9H492); assay: Bio-layer interferometry (BLI), LIR peptide binding to LC3A; conditions: read-out: Kd (best-fit value)
T5 construct: insertion of full-length human GABARAP, GABARAP-L1, LC3A, and LC3C, and EcoRI and NotI restrictions sites for cloning of LC3B and GABARAP-L2; GST (followed by 3C protease site) (N); made in house; host or cells: bacteria (E. coli BL21 (DE3) pLysS is stated for the GST-ATG8 proteins of the overlay assay)
Protocol: as §1, §2, §3, §4

[6] = molecular target: T6, LC3B (Homo sapiens, UniProt Q9GZQ8); assay: BLI, LIR peptide binding to LC3B; conditions: read-out: Kd (best-fit value)
T6 construct: insertion of full-length human GABARAP, GABARAP-L1, LC3A, and LC3C, and EcoRI and NotI restrictions sites for cloning of LC3B and GABARAP-L2; GST (followed by 3C protease site) (N); made in house; host or cells: bacteria (E. coli BL21 (DE3) pLysS is stated for the GST-ATG8 proteins of the overlay assay)
Protocol: as §1, §2
The biosensor tip surface immobilized with a ligand is incubated with an analyte in solution, resulting in an increase in optical thickness at the biosensor tip and a wavelength shift, which is a direct measure of the change in thickness. […] Ligand-loaded SA biosensors were then incubated with different concentrations of ATG8. […]

[7] = fit of response vs GABARAPL1 concentration (μM), n=2 independent experiments, read-out: Kd (best-fit value)
[8] = fit of response vs GABARAP concentration (μM)
[9] = Fig. 4c, fit of response vs GABARAP concentration
[10] = Fig. 4c, fit of response vs GABARAPL1 concentration, n=2 independent experiments, read-out: Kd (best-fit value)

T1 sequence (Q9H0R8 whole entry): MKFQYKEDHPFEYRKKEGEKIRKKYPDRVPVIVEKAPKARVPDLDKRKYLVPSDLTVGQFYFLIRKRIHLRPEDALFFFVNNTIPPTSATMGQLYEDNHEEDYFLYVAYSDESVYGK
T4 sequence (Q9BXW4 whole entry): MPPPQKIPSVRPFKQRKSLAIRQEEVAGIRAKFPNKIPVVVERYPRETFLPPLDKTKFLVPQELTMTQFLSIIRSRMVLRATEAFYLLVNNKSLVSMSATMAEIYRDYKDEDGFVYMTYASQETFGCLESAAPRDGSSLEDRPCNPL
T3 sequence (O95166 whole entry): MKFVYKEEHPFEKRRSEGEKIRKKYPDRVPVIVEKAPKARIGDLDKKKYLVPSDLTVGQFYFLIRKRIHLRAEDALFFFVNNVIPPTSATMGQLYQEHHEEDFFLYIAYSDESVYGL
T2 sequence (P60520 whole entry): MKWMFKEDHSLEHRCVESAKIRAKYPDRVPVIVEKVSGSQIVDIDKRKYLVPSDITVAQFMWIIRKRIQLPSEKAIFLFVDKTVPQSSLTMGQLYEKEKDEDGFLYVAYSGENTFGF

`CSCC[C@H](NC(=O)[C@@H](NC(=O)[C@H](Cc1ccccc1)NC(=O)[C@H](CC(=O)O)NC(=O)[C@H](CC(=O)O)NC(=O)[C@@H](NC(=O)[C@@H](N)CC(=O)O)[C@@H](C)O)C(C)C)C(=O)N[C@H](C(=O)N1CCC[C@H]1C(=O)N[C@@H](C)C(=O)N[C@@H](CCC(N)=O)C(=O)N[C@@H](Cc1ccccc1)C(=O)N1CCC[C@H]1C(=O)NCC(=O)N[C@@H](CC(=O)O)C(=O)N[C@@H](CC(C)C)C(=O)N[C@H](C(=O)O)C(C)C)C(C)C` [ULK1 (aa 353-369)] was tested. Which Kd [1, 7] did it give?
Its Kd is 0.102 µM.

And the Kd [2]?
Its Kd is 583 nM.

Which Kd [3, 8] does the source give for DDFVMVPAQFPGDLV [ULK1 (aa 355-369)] here?
The Kd was 0.288 µM.

What about the Kd [1, 7] of the same compound?
The Kd was 0.243 µM.

And the Kd [4]?
Its Kd is 7840 nM.

And the Kd [2]?
Its Kd is 2210 nM.

What does the source list for DSSCDTDDFVMV [ULK1 (aa 349-360)]?
Kd [3, 8]: 0.218 µM; Kd [1, 7]: 0.22 µM; Kd [4]: 2210 nM; Kd [2]: 1090 nM; Kd [5]: 2920 nM; Kd [6]: 8470 nM

How did the Kd [3, 8] turn out when DSSCDTDDFVMVPA [ULK1 (aa 349-362)] was run?
Its Kd is 0.174 µM.

What about the Kd [1, 7] of the same compound?
Its Kd is 0.148 µM.

And the Kd [4]?
Its Kd is 2780 nM.

And the Kd [2]?
The Kd was 712 nM.

And the Kd [5]?
Its Kd is 9230 nM.

What does the source list for DSSCDTDDFVMVPAQF [ULK1 (aa 349-364)]?
Kd [1, 7]: 0.161 µM; Kd [4]: 2230 nM; Kd [2]: 534 nM; Kd [5]: 8370 nM

With “SQKSDEEDFDIIEDLPLKLTI [PCM1 V1956D/ K1957I/ V1958I]” as the compound, how does the Kd [3, 9] read?
The Kd was 1.39 µM.

What about the Kd [1, 10] of the same compound?
The Kd was 0.907 µM.

What about the Kd [4] of the same compound?
The Kd was 2350 nM.

And the Kd [5]?
Its Kd is 4610 nM.

Which Kd [3, 9] does the source give for SQKSDEEDFDKVEDLPLKLTI [PCM1 V1956D] here?
The Kd was 7.72 µM.

And the Kd [1, 10]?
Its Kd is 5.19 µM.

SQKSDEEDFVIVEDLPLKLTI [PCM1 K1967I] was tested. Which Kd [1, 10] did it give?
Its Kd is 0.131 µM.

And the Kd [4]?
The Kd was 384 nM.

What about the Kd [5] of the same compound?
The Kd was 3930 nM.

For SQKSDEEDFVKIEDLPLKLTI [PCM1 V1959I], which Kd [3, 9] is on record?
The Kd was 1.46 µM.

And the Kd [1, 10]?
Its Kd is 1.07 µM.

And the Kd [4]?
Its Kd is 6940 nM.

And the Kd [2]?
The Kd was 7580 nM.

With SQKSDEEDFVKIEDLPLKLTI [Γ3] as the compound, how does the Kd ([1]; immobilised biotinylated LIR peptide, pH 7.5, 25 °C, mean ± s.d., n = 2–4, pictures print no unit, µM as, read-out: Kd, LIR peptide to GABARAPL1) read?
The Kd was 1.1 ± 0.1 µM.

Which results are given for SQKSDEEDFVKVEDLALKLTI [PCM1 P1962A]?
Kd [3, 9]: 0.994 µM; Kd [1, 10]: 0.879 µM; Kd [4]: 10800 nM; Kd [2]: 10500 nM

Which Kd [1, 10] does the source give for SQKSDEEDFVKVTDLPLKLTI [PCM1 E1959T] here?
Its Kd is 2.89 µM.

YRPPDDAVFDIITDEELCQIQ [FYCO1 WT] was tested. Which Kd [3, 9] did it give?
The Kd was 1.73 µM.

What about the Kd [1, 10] of the same compound?
Its Kd is 0.9 µM.

What about the Kd [4] of the same compound?
The Kd was 3040 nM.

And the Kd [5]?
The Kd was 778 nM.

And the Kd [6]?
Its Kd is 1130 nM.
